The target in one experiment is T1, human PI3Kα protein (Homo sapiens, UniProt P42336).
T1 construct: purchased Carna Biosciences, Inc; host or cells: baculovirus expression system
Nature of the experiment: PI3Kα enzyme assay (ADP-Glo). Type of experiment: biochemical. Particulars: read-out: PI3Kα enzyme inhibitory activity. In a few lines:
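Biotinylated human PI3Kα (baculovirus-expressed, 4.5 nmol/L) pre-incubated 15 min with compound in Tris-HCl pH 7.5, MgCl2, BSA; reaction 60 min at 25° C with 50 μmol/L PIP2 and 100 μmol/L ATP final. ADP quantified by ADP-Glo luminescence; IC50 calculated.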

Experiment [1] addresses T2, GST fusion human ERK2 protein (Homo sapiens, UniProt P28482).
T2 construct: purchased Carna Biosciences, Inc; host or cells: E. coli expression system
Nature of the experiment: ERK2 enzyme assay (1). Particulars: read-out: ERK2 enzyme inhibitory activity (1). Type of experiment: biochemical. In a few lines: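 Enzyme (2.5 nmol/L, E. coli-expressed) preincubated with compound 15 min at room temperature in HEPES/MgCl2/DTT/Brij35 buffer, pH 7.5; reaction with 4.25 μmol/L FL-Peptide 8 and 43.1 μmol/L ATP for 120 min at 25 °C. Phosphorylated peptide fraction quantified by mobility-shift separation after EDTA stop; IC50 calculated.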

[2] abbreviates: 4.5 nmol/L PI3Kα, PIP2 50 μmol/L, ATP 100 μmol/L.
Setting [3] is: 2.5 nmol/L ERK2, ATP 43.1 μmol/L.

Where two headings read alike, the source gives them in different places.

T1 sequence (P42336 whole entry): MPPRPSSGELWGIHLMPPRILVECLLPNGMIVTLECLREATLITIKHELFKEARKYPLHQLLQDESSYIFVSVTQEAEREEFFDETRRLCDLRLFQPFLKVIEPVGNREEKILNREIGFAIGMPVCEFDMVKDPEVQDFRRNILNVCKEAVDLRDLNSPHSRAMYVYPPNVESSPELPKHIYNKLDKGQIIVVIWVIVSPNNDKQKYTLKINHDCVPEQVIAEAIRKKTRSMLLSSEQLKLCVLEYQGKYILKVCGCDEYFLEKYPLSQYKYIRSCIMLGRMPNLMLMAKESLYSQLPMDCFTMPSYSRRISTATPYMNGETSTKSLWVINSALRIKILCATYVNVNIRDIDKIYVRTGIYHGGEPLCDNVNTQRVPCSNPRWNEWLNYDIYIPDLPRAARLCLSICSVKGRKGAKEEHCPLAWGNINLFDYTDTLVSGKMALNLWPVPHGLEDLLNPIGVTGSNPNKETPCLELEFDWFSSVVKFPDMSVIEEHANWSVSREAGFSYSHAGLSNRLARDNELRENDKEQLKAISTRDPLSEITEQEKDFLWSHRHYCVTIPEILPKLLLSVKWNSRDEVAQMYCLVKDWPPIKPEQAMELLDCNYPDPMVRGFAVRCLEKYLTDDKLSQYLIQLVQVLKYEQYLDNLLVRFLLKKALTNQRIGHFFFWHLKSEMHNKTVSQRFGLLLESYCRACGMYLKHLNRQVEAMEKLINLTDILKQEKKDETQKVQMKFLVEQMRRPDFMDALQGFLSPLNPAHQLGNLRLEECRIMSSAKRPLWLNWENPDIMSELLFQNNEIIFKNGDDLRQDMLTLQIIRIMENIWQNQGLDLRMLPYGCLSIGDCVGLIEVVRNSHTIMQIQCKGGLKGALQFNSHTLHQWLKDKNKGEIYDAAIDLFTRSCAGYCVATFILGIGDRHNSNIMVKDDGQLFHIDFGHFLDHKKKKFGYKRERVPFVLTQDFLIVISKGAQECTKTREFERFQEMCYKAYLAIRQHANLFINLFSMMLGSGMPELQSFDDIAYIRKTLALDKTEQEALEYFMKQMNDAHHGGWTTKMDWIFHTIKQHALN
T1 sequence (P27986 whole entry partner): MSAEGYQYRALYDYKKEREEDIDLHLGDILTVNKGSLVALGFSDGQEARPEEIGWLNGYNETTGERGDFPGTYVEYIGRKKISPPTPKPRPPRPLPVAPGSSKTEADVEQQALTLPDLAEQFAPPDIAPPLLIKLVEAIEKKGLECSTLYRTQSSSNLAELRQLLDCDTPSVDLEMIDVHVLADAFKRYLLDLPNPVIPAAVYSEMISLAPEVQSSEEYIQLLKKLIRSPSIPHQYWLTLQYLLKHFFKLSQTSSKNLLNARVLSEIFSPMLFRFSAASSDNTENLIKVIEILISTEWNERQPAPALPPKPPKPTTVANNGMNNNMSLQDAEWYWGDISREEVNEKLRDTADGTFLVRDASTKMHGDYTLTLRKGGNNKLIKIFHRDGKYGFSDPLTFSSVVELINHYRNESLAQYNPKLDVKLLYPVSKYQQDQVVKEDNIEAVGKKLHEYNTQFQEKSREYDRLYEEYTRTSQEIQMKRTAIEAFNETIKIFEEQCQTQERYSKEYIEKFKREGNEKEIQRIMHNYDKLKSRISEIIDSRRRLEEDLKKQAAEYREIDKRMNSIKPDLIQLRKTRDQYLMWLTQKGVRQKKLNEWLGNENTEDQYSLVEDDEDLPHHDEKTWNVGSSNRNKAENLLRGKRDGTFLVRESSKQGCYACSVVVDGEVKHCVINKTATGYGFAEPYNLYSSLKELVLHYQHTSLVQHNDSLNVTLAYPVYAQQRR
T2 sequence (P28482 whole entry, the tested form may be a part): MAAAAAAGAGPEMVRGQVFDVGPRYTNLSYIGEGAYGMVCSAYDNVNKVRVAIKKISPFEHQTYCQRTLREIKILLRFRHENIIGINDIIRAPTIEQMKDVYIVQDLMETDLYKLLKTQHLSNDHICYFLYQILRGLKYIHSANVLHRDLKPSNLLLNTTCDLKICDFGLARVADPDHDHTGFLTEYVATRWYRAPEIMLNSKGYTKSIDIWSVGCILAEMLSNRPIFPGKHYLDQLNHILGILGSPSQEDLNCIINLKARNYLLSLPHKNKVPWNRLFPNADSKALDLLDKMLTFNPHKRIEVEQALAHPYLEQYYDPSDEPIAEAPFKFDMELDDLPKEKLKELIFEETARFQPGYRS

Take `CN1CCN(CCCn2cc(-c3cnc4ccc(Nc5nnc(C6CCCC6)s5)nc4c3)cn2)CC1` [Example 0197, 5-cyclopentyl-N-(7-(1-(3-(4-methylpiperazin-1-yl)propyl)-1H-pyrazol-4-yl)-1,5-naphthyridin-2-yl)-1,3,4-thiadiazole-2-amine]: the IC50 (on human PI3Kα protein (setting [2]); in experiment [1] (setting [3])) was below 1000 nM each time.

`Cn1cc(-c2cnc3ccc(Nc4cncs4)nc3c2)cn1` [Example 0199, N-(7-(1-methyl-1H-pyrazol-4-yl)-1,5-naphthyridin-2-yl)thiazole-5-amine]: the IC50 (on human PI3Kα protein (setting [2]); in experiment [1] (setting [3])) was 1000 to 10000 nM each time.

As for `c1ccc(Nc2cnc3ccc(Nc4nnc(C5CCCC5)s4)nc3c2)cc1` [Example 0200, N^2-(5-cyclopentyl-1,3,4-thiadiazol-2-yl)-N^7-phenyl-1,5-naphthyridine-2,7-diamine], the IC50 (on human PI3Kα protein (setting [2]); in experiment [1] (setting [3])) was 1000 to 10000 nM throughout.

With `c1n[nH]cc1-c1cnc2ccc(Nc3nnc(C4CCCC4)s3)nc2c1` [Example 0201], the IC50 on human PI3Kα protein was 1000 to 10000 nM; in experiment [1] (ERK2 enzyme assay (1)), below 1000 nM.

As for `COc1cc(-c2cnc3ccc(Nc4nnc(C5CCCC5)s4)nc3c2)ccc1O` [Example 0202], the IC50 at human PI3Kα protein was 10000 to 50000 nM; in experiment [1] (ERK2 enzyme assay (1)), below 1000 nM.

Regarding `CCC1=C(OC)C(OC)=CC(Nc2cnc3ccc(Nc4nnc(C5CCCC5)s4)nc3c2)C1` (stereo not drawn) [Example 0205], the IC50 (on human PI3Kα protein; in experiment [1] (ERK2 enzyme assay (1))) was below 1000 nM throughout.

As to `c1ccc(Nc2cnc3ccc(Nc4nnc(C5CCCC5)s4)nc3c2)nc1` [Example 0206], the IC50 on human PI3Kα protein is 10000 to 50000 nM; in experiment [1] (ERK2 enzyme assay (1)), below 1000 nM.

For `c1cncc(Nc2cnc3ccc(Nc4nnc(C5CCCC5)s4)nc3c2)c1` [Example 0207], the IC50 (on human PI3Kα protein; in experiment [1] (ERK2 enzyme assay (1))) was below 1000 nM in each case.

On to `c1cc(Nc2cnc3ccc(Nc4nnc(C5CCCC5)s4)nc3c2)ccn1` [Example 0208], for which the IC50 (on human PI3Kα protein; in experiment [1] (ERK2 enzyme assay (1))) was below 1000 nM in each case.

`c1cnc(Nc2cnc3ccc(Nc4nnc(C5CCCC5)s4)nc3c2)cn1` [Example 0209]: the IC50 (at human PI3Kα protein; in experiment [1] (ERK2 enzyme assay (1))) was below 1000 nM each time.

Take `c1cc(Nc2cnc3ccc(Nc4nnc(C5CCCC5)s4)nc3c2)ncn1` [Example 0210]: the IC50 (on human PI3Kα protein; in experiment [1] (ERK2 enzyme assay (1))) was below 1000 nM throughout.

With `COc1ccccc1Nc1cnc2ccc(Nc3nnc(C4CCCC4)s3)nc2c1` [Example 0219, N^2-(5-cyclopentyl-1,3,4-thiadiazol-2-yl)-N^7-(2-methoxyphenyl)-1,5-naphthyridine-2,7-diamine], the IC50 on human PI3Kα protein fell in the range of 10000 to 50000 nM; in experiment [1] (ERK2 enzyme assay (1)), 1000 to 10000 nM.

As for `COc1cccc(Nc2cnc3ccc(Nc4nnc(C5CCCC5)s4)nc3c2)c1` [Example 0220, N^2-(5-cyclopentyl-1,3,4-thiadiazol-2-yl)-N^7-(3-methoxyphenyl)-1,5-naphthyridine-2,7-diamine], the results for the IC50 (at human PI3Kα protein; in experiment [1] (ERK2 enzyme assay (1))) were below 1000 nM and 1000 to 10000 nM, respectively.

On to `c1cc(Nc2cnc3ccc(Nc4nnc(C5CCCC5)s4)nc3c2)ccc1CN1CCOCC1` [Example 0221, N^2-(5-cyclopentyl-1,3,4-thiadiazol-2-yl)-N^7-(4-(morpholinomethyl)phenyl)-1,5-naphthyridine-2,7-diamine], for which the IC50 (at human PI3Kα protein; in experiment [1] (ERK2 enzyme assay (1))) was below 1000 nM in each case.

As to `c1n[nH]cc1Nc1cnc2ccc(Nc3nnc(C4CCCCC4)s3)nc2c1` [Example 0223], the IC50 is 1000 to 10000 nM at human PI3Kα protein and below 1000 nM in experiment [1] (ERK2 enzyme assay (1)).

For `c1cnnc(Nc2cnc3ccc(Nc4nnc(C5CCCC5)s4)nc3c2)c1` [Example 0224, N^2-(5-cyclopentyl-1,3,4-thiadiazol-2-yl)-N^7-(pyridazin-3-yl)-1,5-naphthyridine-2,7-diamine], the IC50 (on human PI3Kα protein; in experiment [1] (ERK2 enzyme assay (1))) was below 1000 nM in each case.

With `c1n[nH]cc1Nc1cnc2ccc(Nc3nnc(N4CCOCC4)s3)nc2c1` [Example 0225, N^2-(5-morpholino-1,3,4-thiadiazol-2-yl)-N^7-(1H-pyrazol-4-yl)-1,5-naphthyridine-2,7-diamine], the IC50 is 1000 to 10000 nM on human PI3Kα protein and below 1000 nM in experiment [1] (ERK2 enzyme assay (1)).

`c1n[nH]cc1Nc1cnc2ccc(Nc3nnc(C4CCCO4)s3)nc2c1` (stereo not drawn) [Example 0228]: the IC50 (on human PI3Kα protein; in experiment [1] (ERK2 enzyme assay (1))) was below 1000 nM each time.

As for `Cc1cc(-c2cnc3ccc(Nc4cc(C(C)C)cnn4)nc3c2)ccn1` [Example 0229], the IC50 (on human PI3Kα protein; in experiment [1] (ERK2 enzyme assay (1))) was below 1000 nM throughout.

Consider `c1nc2ccc(Nc3nnc(CC4CCCC4)s3)nc2cc1-c1cnn(CCCN2CCCC2)c1` [Example 0234], for which the IC50 (on human PI3Kα protein; in experiment [1] (ERK2 enzyme assay (1))) was below 1000 nM throughout.

`OCc1nnc(Nc2ccc3ncc(-c4cnn(CCCN5CCCC5)c4)cc3n2)s1` [Example 0239, (5-((7-(1-(3-(Pyrrolidin-1-yl)propyl)-1H-pyrazol-4-yl)-1,5-naphthyridin-2-yl)amino)-1,3,4-thiadiazol-2-yl)methanol]: the IC50 (on human PI3Kα protein; in experiment [1] (ERK2 enzyme assay (1))) was below 1000 nM in each case.

`c1nc2ccc(Nc3nnc(C4CCCCO4)s3)nc2cc1-c1cnn(CCCN2CCCC2)c1` (stereo not drawn) [Example 0244, N-(7-(1-(3-(pyrrolidin-1-yl)propyl)-1H-pyrazol-4-yl)-1,5-naphthyridin-2-yl)-5-(tetrahydro-2H-pyran-2-yl)-1,3,4-thiadiazole-2-amine]: the IC50 (on human PI3Kα protein; in experiment [1] (ERK2 enzyme assay (1))) was below 1000 nM in each case.

For `CNc1nnc(Nc2ccc3ncc(-c4cnn(CCN5CCOCC5)c4)cc3n2)s1` [Example 0249, N^2-methyl-N^5-(7-(1-(2-morpholinoethyl)-1H-pyrazol-4-yl)-1,5-naphthyridin-2-yl)-1,3,4-thiadiazole-2,5-diamine], the IC50 (at human PI3Kα protein; in experiment [1] (ERK2 enzyme assay (1))) was below 1000 nM each time.

In the case of `Nc1nnc(Nc2ccc3ncc(-c4cnn(CCN5CCOCC5)c4)cc3n2)s1` [Example 0254, N^2-(7-(1-(2-morpholinoethyl)-1H-pyrazol-4-yl)-1,5-naphthyridin-2-yl)-1,3,4-thiadiazole-2,5-diamine], the IC50 (on human PI3Kα protein; in experiment [1] (ERK2 enzyme assay (1))) was below 1000 nM throughout.

Turning to `c1nc2ccc(Nc3nnc(CN4CCOCC4)s3)nc2cc1-c1cnn(CCCN2CCCC2)c1` [Example 0255, 5-(morpholinomethyl)-N-(7-(1-(3-(pyrrolidin-1-yl)propyl)-1H-pyrazol-4-yl)-1,5-naphthyridin-2-yl)-1,3,4-thiadiazole-2-amine], the IC50 was 1000 to 10000 nM on human PI3Kα protein and below 1000 nM in experiment [1] (ERK2 enzyme assay (1)).

For `c1nc2ccc(Nc3nnc(CC4CC4)s3)nc2cc1-c1cnn(CCCN2CCCC2)c1` [Example 0256, 5-(Cyclopropylmethyl)-N-(7-(1-(3-(pyrrolidin-1-yl)propyl)-1H-pyrazol-4-yl)-1,5-naphthyridin-2-yl)-1,3,4-thiadiazole-2-amine], the IC50 (on human PI3Kα protein; in experiment [1] (ERK2 enzyme assay (1))) was below 1000 nM in each case.

With `CC(O)c1nnc(Nc2ccc3ncc(-c4cnn(CCCN5CCCC5)c4)cc3n2)s1` (stereo not drawn) [Example 0259], the IC50 (at human PI3Kα protein; in experiment [1] (ERK2 enzyme assay (1))) was below 1000 nM throughout.

Consider `CC(C)(O)Cc1nnc(Nc2ccc3ncc(-c4cnn(CCCN5CCCC5)c4)cc3n2)s1` [Example 0260], for which the IC50 (at human PI3Kα protein; in experiment [1] (ERK2 enzyme assay (1))) was below 1000 nM throughout.

Consider `CCC(C)c1nnc(Nc2ccc3ncc(-c4cnn(CCCN5CCCC5)c4)cc3n2)s1` (stereo not drawn) [Example 0263], for which the IC50 (at human PI3Kα protein; in experiment [1] (ERK2 enzyme assay (1))) was below 1000 nM each time.

For `CC(C)c1nnc(Nc2ccc3nccc(-c4ccccc4)c3n2)s1` [Example 0264, 5-isopropyl-N-(8-phenyl-1,5-naphthyridin-2-yl)-1,3,4-thiadiazole-2-amine], the IC50 at human PI3Kα protein is 1000 to 10000 nM; in experiment [1] (ERK2 enzyme assay (1)), below 1000 nM.

The values are drawn from US9783536B2, “Nitrogen-containing heterocyclic compound or salt thereof” (FUJIFILM Corporation, priority 2013, dated 2017).
